Key:
ECHCG (Barnyardgrass) [1] = assay: Postemergence herbicidal evaluation; assay type: in vivo, Echinochloa crus-galli; details: postemergence
Procedure, shortened: (§1)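 ~2-wk seedlings; postemergence spray, 40 psi; vehicle 1:1 acetone:water + 0.5% Tween 20; rate ≈0.0156–0.500 kg/ha; greenhouse hold; scored 4–5 wk after treatment, 0–9 scale vs control; repeat tests averaged.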

CYPIR (Rice Flatsedge) = assay: Preemergence weed control under flooded paddy conditions; assay type: in vivo, Cyperus iria; details: rated 3-4 weeks after treatment
Procedure, shortened: (§2)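 Herbicidal effect is scored visually on a 0-9 scale against an untreated control, three to four weeks after compounds are pipetted into the flood water (1.5 to 3 cm deep) over seeds planted in silt loam at 0.5 cm depth. Rates: about 0.0313 to 0.500 kg/ha.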

ZEAMX (Corn, Field) [2] = assay: Preemergence herbicidal evaluation; assay type: in vivo, Zea mays; details: rated 4-5 weeks after treatment
Procedure, shortened: (§3)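 Herbicidal effect scored visually, 0-9, at 4 to 5 weeks against a control; compound applied preemergence by aqueous acetone spray to seeded soil at about 0.0156 to 0.500 kg/ha.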

ECHCG (Barnyardgrass) [3] = assay: Preemergence herbicidal evaluation; assay type: in vivo, Echinochloa crus-galli; details: rated 4-5 weeks after treatment
Procedure, shortened: as §3

CASOB (Sicklepod) [4] = assay: Preemergence herbicidal evaluation; assay type: in vivo, Cassia obtusifolia; details: rated 4-5 weeks after treatment
Procedure, shortened: as §3

CASOB (Sicklepod) [5] = assay: Postemergence herbicidal evaluation; assay type: in vivo, Cassia obtusifolia; details: postemergence
Procedure, shortened: as §1

ZEAMX (Corn, Field) [6] = assay: Postemergence herbicidal evaluation; assay type: in vivo, Zea mays; details: postemergence
Procedure, shortened: as §1

ABUTH (Velvetleaf) = assay: Preemergence herbicidal evaluation; assay type: in vivo, Abutilon theophrasti; details: rated 4-5 weeks after treatment
Procedure, shortened: as §3

[7] = test system: TRZAWR (Wheat, Winter, cv Riband); assay: Preemergence herbicidal evaluation; assay type: in vivo, Triticum aestivum; details: rated 4-5 weeks after treatment
Procedure, shortened: as §3

[8] = test system: ECHORC (Watergrass (Calif.)); assay: Preemergence weed control under flooded paddy conditions; assay type: in vivo, Echinochloa oryzoides; details: rated 3-4 weeks after treatment
Procedure, shortened: as §2

SETVI (Foxtail, Green) = assay: Preemergence herbicidal evaluation; assay type: in vivo, Setaria viridis; details: rated 4-5 weeks after treatment
Procedure, shortened: as §3

MOOVA (Monochoria) = assay: Preemergence weed control under flooded paddy conditions; assay type: in vivo, Monochoria vaginalis; details: rated 3-4 weeks after treatment
Procedure, shortened: (§4)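 Seeds or propagules sown in silt loam kept flooded 1.5-3 cm; compounds in 50/50 acetone/water pipetted into flood water at about 0.0313 to 0.500 kg/ha. Greenhouse; visual 0-9 rating versus untreated control 3-4 weeks after treatment.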

CYPSE (Flatsedge) = assay: as above; assay type: in vivo, Cyperus serotinus; details: rated 3-4 weeks after treatment
Procedure, shortened: as §4

CC1SC(=Nc2cc(N3C(=O)C4=C(CCCC4)C3=O)c(F)cc2Cl)N(C)C1=O (centres unmarked) [Compound 4]
ECHCG herbicidal rating (ECHCG (Barnyardgrass) [1]; rate 0.0313 kg/ha): 0.0
ECHCG herbicidal rating (ECHCG (Barnyardgrass) [1]; rate 0.0625 kg/ha): 0.0
ECHCG herbicidal rating (ECHCG (Barnyardgrass) [1]; rate 0.1250 kg/ha): 0.0
ECHCG herbicidal rating (ECHCG (Barnyardgrass) [1]; rate 0.2500 kg/ha): 4.0
ECHCG herbicidal rating (ECHCG (Barnyardgrass) [1]; rate 0.5000 kg/ha): 2.0
Herbicidal rating CYPIR (CYPIR (Rice Flatsedge); 0.0313 kg/ha): 0.0
Herbicidal rating CYPIR (CYPIR (Rice Flatsedge); 0.0625 kg/ha): 4.0
Herbicidal rating CYPIR (CYPIR (Rice Flatsedge); 0.1250 kg/ha): 8.0
Herbicidal rating CYPIR (CYPIR (Rice Flatsedge); 0.2500 kg/ha): 9.0
Herbicidal rating CYPIR (CYPIR (Rice Flatsedge); 0.5000 kg/ha): 9.0
ZEAMX preemergence herbicidal rating (ZEAMX (Corn, Field) [2]; rate 0.1250 kg/ha): 2.0
ZEAMX preemergence herbicidal rating (ZEAMX (Corn, Field) [2]; rate 0.2500 kg/ha): 2.0
ZEAMX preemergence herbicidal rating (ZEAMX (Corn, Field) [2]; rate 0.5000 kg/ha): 4.0
ECHCG preemergence herbicidal rating (ECHCG (Barnyardgrass) [3]; rate 0.1250 kg/ha): 0.0
ECHCG preemergence herbicidal rating (ECHCG (Barnyardgrass) [3]; rate 0.2500 kg/ha): 2.0
ECHCG preemergence herbicidal rating (ECHCG (Barnyardgrass) [3]; rate 0.5000 kg/ha): 6.0
CASOB preemergence herbicidal rating (CASOB (Sicklepod) [4]; rate 0.1250 kg/ha): 0.0
CASOB preemergence herbicidal rating (CASOB (Sicklepod) [4]; rate 0.2500 kg/ha): 2.0
CASOB preemergence herbicidal rating (CASOB (Sicklepod) [4]; rate 0.5000 kg/ha): 7.0
CASOB herbicidal rating (CASOB (Sicklepod) [5]; rate 0.0313 kg/ha): 0.0
CASOB herbicidal rating (CASOB (Sicklepod) [5]; rate 0.0625 kg/ha): 0.0
CASOB herbicidal rating (CASOB (Sicklepod) [5]; rate 0.1250 kg/ha): 0.0
CASOB herbicidal rating (CASOB (Sicklepod) [5]; rate 0.2500 kg/ha): 0.0
CASOB herbicidal rating (CASOB (Sicklepod) [5]; rate 0.5000 kg/ha): 2.0
ZEAMX herbicidal rating (ZEAMX (Corn, Field) [6]; rate 0.0313 kg/ha): 3.0
ZEAMX herbicidal rating (ZEAMX (Corn, Field) [6]; rate 0.0625 kg/ha): 3.5
ZEAMX herbicidal rating (ZEAMX (Corn, Field) [6]; rate 0.1250 kg/ha): 4.0
ZEAMX herbicidal rating (ZEAMX (Corn, Field) [6]; rate 0.2500 kg/ha): 4.0
ZEAMX herbicidal rating (ZEAMX (Corn, Field) [6]; rate 0.5000 kg/ha): 4.0
ABUTH preemergence herbicidal rating (ABUTH (Velvetleaf); rate 0.1250 kg/ha): 0.0
ABUTH preemergence herbicidal rating (ABUTH (Velvetleaf); rate 0.2500 kg/ha): 2.0
ABUTH preemergence herbicidal rating (ABUTH (Velvetleaf); rate 0.5000 kg/ha): 8.0
TRZAWR preemergence herbicidal rating ([7]; rate 0.1250 kg/ha): 2.0
TRZAWR preemergence herbicidal rating ([7]; rate 0.2500 kg/ha): 3.0
TRZAWR preemergence herbicidal rating ([7]; rate 0.5000 kg/ha): 3.0
Herbicidal rating ECHORC ([8]; 0.0313 kg/ha): 2.0
Herbicidal rating ECHORC ([8]; 0.0625 kg/ha): 4.0
Herbicidal rating ECHORC ([8]; 0.1250 kg/ha): 7.0
Herbicidal rating ECHORC ([8]; 0.2500 kg/ha): 8.0
Herbicidal rating ECHORC ([8]; 0.5000 kg/ha): 9.0
SETVI preemergence herbicidal rating (SETVI (Foxtail, Green); rate 0.1250 kg/ha): 2.0
SETVI preemergence herbicidal rating (SETVI (Foxtail, Green); rate 0.2500 kg/ha): 4.0
SETVI preemergence herbicidal rating (SETVI (Foxtail, Green); rate 0.5000 kg/ha): 9.0
Herbicidal rating MOOVA (MOOVA (Monochoria); 0.0313 kg/ha): 2.0
Herbicidal rating MOOVA (MOOVA (Monochoria); 0.0625 kg/ha): 7.0
Herbicidal rating MOOVA (MOOVA (Monochoria); 0.1250 kg/ha): 8.0
Herbicidal rating MOOVA (MOOVA (Monochoria); 0.2500 kg/ha): 9.0
Herbicidal rating MOOVA (MOOVA (Monochoria); 0.5000 kg/ha): 9.0
Herbicidal rating CYPSE (CYPSE (Flatsedge); 0.0313 kg/ha): 0.0
Herbicidal rating CYPSE (CYPSE (Flatsedge); 0.0625 kg/ha): 0.0
Herbicidal rating CYPSE (CYPSE (Flatsedge); 0.1250 kg/ha): 0.0
Herbicidal rating CYPSE (CYPSE (Flatsedge); 0.2500 kg/ha): 0.0
Herbicidal rating CYPSE (CYPSE (Flatsedge); 0.5000 kg/ha): 0.0

Reference: patent US20020137929A1, “1 - (3-heterocyclylphenyl) isothiourea, -isourea, -guanidine and -amidine herbicidal agents” (Intellectual Property Department, BASF Aktiengesellschaft, priority 1998, published 2002)
